These are literature values, as cited in publication PMC11232374, “Safety, tolerability, and pharmacokinetics of HRS9432(A) injection in healthy Chinese subjects: a phase-I randomized, double-blind, dose escalation, placebo-controlled study” (Antimicrobial Agents and Chemotherapy, 2024).

The conditions of this data set: after a single intravenous dose. The text has this: Echinocandin-class antifungal drugs currently available on the market include caspofungin, micafungin, and anidulafungin. The chemical structures of these drugs contribute to their relatively short half-life, necessitating daily administration in clinical practice ([3]). Rezafungin is a long-acting echinocandin antifungal drug, based on the structure of anidulafungin to enhance metabolic stability. […] The results of its Pha ...

As for Rezafungin, the elimination half-life is recorded as 150 h.
